For test [1], the system named is Mycobacterium tuberculosis. As to the kind of experiment: Anti-tubercular activity against Mycobacterium tuberculosis H37Rv incubated at 37 degC by microscopy. Format: functional.
Test [2] deals with Mycobacterium tuberculosis. As to the kind of experiment: Potency index, ratio of IC50 for PA-824 to IC50 for test compound against Mycobacterium tuberculosis. Format: functional.
The subject of test [3] is Mycobacterium tuberculosis. As to the kind of experiment: Anti-tubercular activity against Mycobacterium tuberculosis. Format: functional, organism-based.
Test [4] concerns Mycobacterium tuberculosis. As to the kind of experiment: Potency index, ratio of IC50 for PA-824 to IC50 for test compound against Mycobacterium tuberculosis H37Rv. Format: functional.

SMILES strings stand for the structures. Converted amounts (≈) assume the structure as drawn.

The term MIC99 denotes an inhibitory concentration at the 99% level, which refers to growth in some studies and to a panel of isolates in others. Read a low MIC99 as higher susceptibility. In turn, `O=[N+]([O-])c1cn2c(n1)O[C@@H](CCOc1ccccc1)CC2` displayed an MIC99 in test [1] of 3.12 µM (≈ 0.904 µg/mL). This counts as single-digit micromolar.

In the case of `O=[N+]([O-])c1cn2c(n1)O[C@@H](CCOCc1ccc(Br)cc1)CC2`, in test [1], the MIC99 is 0.39 µM (≈ 0.149 µg/mL).

`O=C(OCC[C@H]1CCn2cc([N+](=O)[O-])nc2O1)OCc1cccc(OC(F)(F)F)c1`: the MIC99 in test [1] is 0.78 µM (≈ 0.336 µg/mL). Compared with the last compound, the MIC99 is about 2-fold higher.

In test [1], `O=[N+]([O-])c1cn2c(n1)O[C@H](CCOc1ccc(OCc3ccccc3)cc1)CC2` displayed an MIC99 of 0.078 µM (≈ 0.0308 µg/mL).

In test [1], `O=C(Nc1ccc(-c2ccc(OC(F)(F)F)cc2)cc1)OCC[C@H]1CCn2cc([N+](=O)[O-])nc2O1` had an MIC99 of 0.195 µM (≈ 0.096 µg/mL).

Turning to `O=C(OCC[C@H]1CCn2cc([N+](=O)[O-])nc2O1)OCc1ccc(Cl)cc1`, the MIC99 in test [1] is 0.195 µM (≈ 0.0744 µg/mL).

Compound `O=C(OCC[C@@H]1CCn2cc([N+](=O)[O-])nc2O1)OCc1ccc(OC(F)(F)F)cc1` displayed an MIC99 in test [1] of 1.56 µM (≈ 0.673 µg/mL).

In turn, `O=[N+]([O-])c1cn2c(n1)O[C@@H](CCOc1ccc(-c3ccccc3)cc1)CC2` returned an MIC99 in test [1] of 0.078 µM (≈ 0.0285 µg/mL).

`O=[N+]([O-])c1cn2c(n1)O[C@@H](CCOCc1ccc(Cl)cc1)CC2` displayed an MIC99 in test [1] of 0.39 µM (≈ 0.132 µg/mL).

The IC50 is the concentration that gives 50% inhibition. Low values mean inhibition by little substance, high ones a need for much substance. Regarding `O=[N+]([O-])c1cn2c(n1)OC[C@H](OCc1ccc(OC(F)(F)F)cc1)C2`, the “Ratio IC50” value in test [2] was 6. Moreover, in test [3], the IC50 was 160 nM.

As for `O=[N+]([O-])c1cn2c(n1)OC[C@@H](OCc1ccc(OC(F)(F)F)cc1)C2` [PRETOMANID], in test [1], the MIC99 worked out at 0.39 µM (≈ 0.14 µg/mL). Further, the concentration for half-maximal inhibition (IC50) in test [3] stood at 900 nM.

In test [1], `O=[N+]([O-])c1cn2c(n1)O[C@@H](CCOc1ccc(C(F)(F)F)cc1)CC2` registered an MIC99 of 0.195 µM (≈ 0.0697 µg/mL).

The compound `O=[N+]([O-])c1cn2c(n1)O[C@@H](CCOCc1ccc(OC(F)(F)F)cc1)CC2` showed an MIC99 in test [1] of 0.078 µM (≈ 0.0302 µg/mL). In addition, in test [4], the “Ratio IC50” value was 5.

Turning to `O=C(Nc1ccc(Cl)cc1)OCC[C@H]1CCn2cc([N+](=O)[O-])nc2O1`, the MIC99 in test [1] stood at 0.195 µM (≈ 0.0715 µg/mL).

In test [1], `O=[N+]([O-])c1cn2c(n1)O[C@@H](CCOCc1ccc(-c3ccccc3)cc1)CC2` displayed an MIC99 of 0.195 µM (≈ 0.074 µg/mL). Besides, the “Ratio IC50” value in test [4] amounted to 2.

With `O=[N+]([O-])c1cn2c(n1)O[C@H](CCOCc1ccc(OC(F)(F)F)cc1)CC2`, in test [1], the MIC99 amounted to 0.39 µM (≈ 0.151 µg/mL). In other words, the sub-micromolar range.

In test [1], `O=[N+]([O-])c1cn2c(n1)O[C@@H](CCOc1ccc(OC(F)(F)F)cc1)CC2` returned an MIC99 of 0.098 µM (≈ 0.0366 µg/mL).

The compound `O=[N+]([O-])c1cn2c(n1)O[C@@H](CCOc1ccc(Cl)cc1)CC2` displayed an MIC99 in test [1] of 0.39 µM (≈ 0.126 µg/mL).

In test [1], `O=[N+]([O-])c1cn2c(n1)O[C@@H](CCOc1ccc(-c3ccc(F)cc3)cc1)CC2` displayed an MIC99 of 0.05 µM (≈ 0.0192 µg/mL).

The compound `O=C(OCC[C@H]1CCn2cc([N+](=O)[O-])nc2O1)OCc1ccccc1OC(F)(F)F` gave an MIC99 in test [1] of 0.39 µM (≈ 0.168 µg/mL).

`O=C(OCC[C@H]1CCn2cc([N+](=O)[O-])nc2O1)OCc1ccc(OC(F)(F)F)cc1` showed an MIC99 in test [1] of 0.078 µM (≈ 0.0336 µg/mL).

The compound `O=[N+]([O-])c1cn2c(n1)O[C@@H](CCOc1ccc(OCc3ccccc3)cc1)CC2` had an MIC99 in test [1] of 0.078 µM (≈ 0.0308 µg/mL).

On to `O=[N+]([O-])c1cn2c(n1)O[C@@H](CCOCc1ccc(C(F)(F)F)cc1)CC2`, for which the MIC99 in test [1] amounted to 0.195 µM (≈ 0.0724 µg/mL).

In test [1], `O=C(OCC[C@H]1CCn2cc([N+](=O)[O-])nc2O1)OCc1ccc(C(F)(F)F)cc1` registered an MIC99 of 0.39 µM (≈ 0.162 µg/mL).

Turning to `CC(C)(C)c1ccc(COCC[C@H]2CCn3cc([N+](=O)[O-])nc3O2)cc1`, the MIC99 in test [1] stood at 0.39 µM (≈ 0.14 µg/mL). That is a sub-micromolar value.

Values taken from ChEMBL document CHEMBL3608227, “Synthesis and anti-tubercular activity of 2-nitroimidazooxazines with modification at the C-7 position as PA-824 analogs” (Bioorg Med Chem Lett, 2015).
